These are literature values, as cited in patent publication US20070243563A1, “Aflatoxin-albumin adduct measurement and the uses thereof” (priority 2000, published 2007).

Series [1] concerns rats. Particulars: rat, in vivo.
Series [2] concerns humans.

As for Aflatoxin B1 [AFB1], in series [1], the TD50 is 9.3×10^−4 mg/kg per day and the “carcinogenic potency relative to benzo(a)pyrene” value is 1000 times. For the same substance, the IARC carcinogen classification entry in series [2] is “Group 1 carcinogens”.
